In brackets after ≈: the same amount, converted by molar mass. Several values for one entry are separate records, joined by “and”; a condition that tells them apart may be missing. Equal values may be shown once. Entries after “also recorded” stand apart in the source; their conditions may differ. Read-outs that look alike come from different tables or passages of the source.
Experiments:
E. coli W3110 [1] = test: MIC by broth microdilution; assay type: cell-based, Escherichia coli; details: for MIC: broth microdilution, read-out: MIC E. coli W3110; for antimicrobial activity: relative to parent compound
In short: (§1)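 Broth microdilution in CAMHB: twofold compound series inoculated with 100-fold-diluted bacteria from exponential growth (OD600 0.5, 37 °C); kanamycin 50 µg ml^−1 added for Keio collection strains. Overnight incubation, 37 °C, 600 r.p.m. shaking.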

K. pneumoniae ATCC 29665 = test: MIC by broth microdilution; assay type: cell-based, Klebsiella pneumoniae; details: read-out: MIC K. pneumoniae ATCC 29665
In short: as §1

[2] = tested on: E. coli BW25113 and single-gene knockouts; test: MIC on E. coli strains of the Keio collection; assay type: cell-based, Escherichia coli; details: for MIC: Escherichia coli
Description: MIC was determined by broth microdilution. Single-colony cultures were grown to exponential phase (OD600 of 0.5) aerobically at 37 °C. In case of strains from the Keio collection, 50 µg ml^−1 kanamycin was supplemented to the media to ascertain a homogeneous population. The bacterial suspensions were diluted 100-fold in CAMHB and 50 µl was added to a twofold serial dilution series of test compounds (50 µl per well) in polypropylene 96-well microtitre plates to reach a volume of 100 µl. The plates were sealed with breathable membranes and incubated overnight at 37 °C with constant shaking (600 r.p.m.). The MIC was determined as the lowest concentration at which no visible bacterial growth was observed as compared with the inoculum controls from the median of a minimum of triplicates.

E. coli W3110 [3] = test: Checkerboard assay with PMBN; details: for Checkerboard well reading (growth), Average values: average of 3 wells; for Checkerboard well reading (growth): single wells (triplicate)
[4] = LEI-801 0.78125 µM + PMBN 0.5 µM
[5] = LEI-801 0.78125 µM + PMBN 16 µM
[6] = LEI-801 0.78125 µM + PMBN 32 µM
[7] = LEI-801 1.5625 µM + PMBN 0.5 µM

## O=S(=O)(NC[C@H]1CC[C@@H](c2ccc(-c3ccc(F)nc3)cc2)N1)c1cccc2cnccc12 [LEI-801]
E. coli W3110 [1]; Escherichia coli, W3110, WT
  MIC: > 50 µM
E. coli W3110 [1]; WT, listed as LEI-801 (99)
  MIC: > 50 µM
E. coli W3110 [1]; listed as 99
  antimicrobial activity: completely inactive
E. coli W3110 [1]; listed as 99 (LEI-801)
  antimicrobial activity: inactive
K. pneumoniae ATCC 29665; Klebsiella pneumoniae, ATCC29665, broth microdilution
  MIC: > 50 µM
K. pneumoniae ATCC 29665; broth microdilution, listed as LEI-801 (99)
  MIC: > 50 µM
[2]
  potency against ΔtolC efflux pump mutant: No increase in potency
[2]; BW25113, JW3594 ΔrfaD
  MIC: 3.1 µM (≈ 1.43 µg/mL)
[2]; BW25113, JW3596 ΔrfaC, LPS disruption (genetic)
  MIC: 3.1 µM (≈ 1.43 µg/mL)
[2]; BW25113, JW3600 ΔrfaY
  MIC: > 50 µM
[2]; BW25113, JW3602 ΔrfaI
  MIC: > 50 µM
[2]; BW25113, JW3605 ΔrfaP
  MIC: 12.5 µM (≈ 5.78 µg/mL)
[2]; BW25113, JW5503 ΔTolC
  MIC: > 50 µM
[2]; BW25113, read-out: MIC E. coli BW25113, parent strain
  MIC: > 50 µM
E. coli W3110 [3]; Escherichia coli, W3110
  MIC: 200 µM
E. coli W3110 [3]; LEI-801 0.78125 µM + PMBN 0 µM
  Checkerboard well reading (growth), Average values: 0.7994
  Checkerboard well reading (growth): 0.8278 and 0.8 and 0.7705
E. coli W3110 [3]; [4]
  Checkerboard well reading (growth), Average values: 0.7351
  Checkerboard well reading (growth): 0.7319 and 0.7576 and 0.7157
E. coli W3110 [3]; LEI-801 0.78125 µM + PMBN 1 µM
  Checkerboard well reading (growth), Average values: 0.8267
  Checkerboard well reading (growth): 0.8444 and 0.8247 and 0.811
E. coli W3110 [3]; LEI-801 0.78125 µM + PMBN 2 µM
  Checkerboard well reading (growth), Average values: 0.8646
  Checkerboard well reading (growth): 0.8699 and 0.8873 and 0.8367
E. coli W3110 [3]; LEI-801 0.78125 µM + PMBN 4 µM
  Checkerboard well reading (growth), Average values: 0.6877
  Checkerboard well reading (growth): 0.7078 and 0.6767 and 0.6785
E. coli W3110 [3]; LEI-801 0.78125 µM + PMBN 8 µM
  Checkerboard well reading (growth), Average values: 0.5094
  Checkerboard well reading (growth): 0.4316 and 0.5477 and 0.5488
E. coli W3110 [3]; [5]
  Checkerboard well reading (growth), Average values: 0.3746
  Checkerboard well reading (growth): 0.3718 and 0.3921 and 0.3599
E. coli W3110 [3]; [6]
  Checkerboard well reading (growth), Average values: 0.3716
  Checkerboard well reading (growth): 0.3691 and 0.3426 and 0.4032
E. coli W3110 [3]; LEI-801 1.5625 µM + PMBN 0 µM
  Checkerboard well reading (growth), Average values: 0.7861
  Checkerboard well reading (growth): 0.8385 and 0.7794 and 0.7404
E. coli W3110 [3]; [7]
  Checkerboard well reading (growth), Average values: 0.7438
  Checkerboard well reading (growth): 0.7318 and 0.7541 and 0.7454
E. coli W3110 [3]; LEI-801 1.5625 µM + PMBN 1 µM
  Checkerboard well reading (growth), Average values: 0.7641
  Checkerboard well reading (growth): 0.7579 and 0.7961 and 0.7382
E. coli W3110 [3]; LEI-801 1.5625 µM + PMBN 2 µM
  Checkerboard well reading (growth), Average values: 0.7789
  Checkerboard well reading (growth): 0.7943 and 0.7704 and 0.772
E. coli W3110 [3]; LEI-801 1.5625 µM + PMBN 4 µM
  Checkerboard well reading (growth), Average values: 0.5724
  Checkerboard well reading (growth): 0.635 and 0.5325 and 0.5498
E. coli W3110 [3]; LEI-801 1.5625 µM + PMBN 8 µM
  Checkerboard well reading (growth), Average values: 0.3746
  Checkerboard well reading (growth): 0.3243 and 0.3533 and 0.4462
E. coli W3110 [3]; LEI-801 1.5625 µM + PMBN 16 µM
  Checkerboard well reading (growth), Average values: 0.3394
  Checkerboard well reading (growth): 0.3897 and 0.339 and 0.2896
E. coli W3110 [3]; LEI-801 1.5625 µM + PMBN 32 µM
  Checkerboard well reading (growth), Average values: 0.3074
  Checkerboard well reading (growth): 0.2616 and 0.2961 and 0.3644
E. coli W3110 [3]; LEI-801 3.125 µM + PMBN 0 µM
  Checkerboard well reading (growth), Average values: 0.7892
E. coli W3110 [3]; LEI-801 3.125 µM + PMBN 0.5 µM
  Checkerboard well reading (growth), Average values: 0.6976
E. coli W3110 [3]; LEI-801 3.125 µM + PMBN 1 µM
  Checkerboard well reading (growth), Average values: 0.7008
E. coli W3110 [3]; LEI-801 3.125 µM + PMBN 2 µM
  Checkerboard well reading (growth), Average values: 0.5725
E. coli W3110 [3]; LEI-801 3.125 µM + PMBN 4 µM
  Checkerboard well reading (growth), Average values: 0.4871
E. coli W3110 [3]; LEI-801 3.125 µM + PMBN 8 µM
  Checkerboard well reading (growth), Average values: 0.2805
E. coli W3110 [3]; LEI-801 3.125 µM + PMBN 16 µM
  Checkerboard well reading (growth), Average values: 0.2397
E. coli W3110 [3]; LEI-801 3.125 µM + PMBN 32 µM
  Checkerboard well reading (growth), Average values: 0.2242
E. coli W3110 [3]; LEI-801 6.25 µM + PMBN 0 µM
  Checkerboard well reading (growth), Average values: 0.7739
E. coli W3110 [3]; LEI-801 6.25 µM + PMBN 0.5 µM
  Checkerboard well reading (growth), Average values: 0.6373
E. coli W3110 [3]; LEI-801 6.25 µM + PMBN 1 µM
  Checkerboard well reading (growth), Average values: 0.4799
E. coli W3110 [3]; LEI-801 6.25 µM + PMBN 2 µM
  Checkerboard well reading (growth), Average values: 0.2823
E. coli W3110 [3]; LEI-801 6.25 µM + PMBN 4 µM
  Checkerboard well reading (growth), Average values: 0.1833
E. coli W3110 [3]; LEI-801 6.25 µM + PMBN 8 µM
  Checkerboard well reading (growth), Average values: 0.1357
E. coli W3110 [3]; LEI-801 6.25 µM + PMBN 16 µM
  Checkerboard well reading (growth), Average values: 0.1386
E. coli W3110 [3]; LEI-801 6.25 µM + PMBN 32 µM
  Checkerboard well reading (growth), Average values: 0.1521
E. coli W3110 [3]; LEI-801 12.5 µM + PMBN 0 µM
  Checkerboard well reading (growth), Average values: 0.6968
E. coli W3110 [3]; LEI-801 12.5 µM + PMBN 0.5 µM
  Checkerboard well reading (growth), Average values: 0.5454
E. coli W3110 [3]; LEI-801 12.5 µM + PMBN 1 µM
  Checkerboard well reading (growth), Average values: 0.4004
E. coli W3110 [3]; LEI-801 12.5 µM + PMBN 2 µM
  Checkerboard well reading (growth), Average values: 0.1564
  Checkerboard well reading (growth): 0.1441 and 0.1568 and 0.1684
E. coli W3110 [3]; LEI-801 12.5 µM + PMBN 4 µM
  Checkerboard well reading (growth), Average values: 0.1485
  Checkerboard well reading (growth): 0.1572
E. coli W3110 [3]; LEI-801 12.5 µM + PMBN 8 µM
  Checkerboard well reading (growth), Average values: 0.1397
E. coli W3110 [3]; LEI-801 12.5 µM + PMBN 16 µM
  Checkerboard well reading (growth), Average values: 0.1401
E. coli W3110 [3]; LEI-801 12.5 µM + PMBN 32 µM
  Checkerboard well reading (growth), Average values: 0.1472
E. coli W3110 [3]; LEI-801 25 µM + PMBN 0 µM
  Checkerboard well reading (growth), Average values: 0.6592
  Checkerboard well reading (growth): 0.7013 and 0.6648 and 0.6113
E. coli W3110 [3]; LEI-801 25 µM + PMBN 0.5 µM
  Checkerboard well reading (growth), Average values: 0.5495
  Checkerboard well reading (growth): 0.5605 and 0.5428 and 0.5453
E. coli W3110 [3]; LEI-801 25 µM + PMBN 1 µM
  Checkerboard well reading (growth), Average values: 0.1537
  Checkerboard well reading (growth): 0.153 and 0.1529 and 0.1554
E. coli W3110 [3]; LEI-801 25 µM + PMBN 2 µM
  Checkerboard well reading (growth), Average values: 0.155
  Checkerboard well reading (growth): 0.1518 and 0.1536 and 0.1596
E. coli W3110 [3]; LEI-801 25 µM + PMBN 4 µM
  Checkerboard well reading (growth), Average values: 0.1451
  Checkerboard well reading (growth): 0.1525 and 0.1428 and 0.1399
E. coli W3110 [3]; LEI-801 25 µM + PMBN 8 µM
  Checkerboard well reading (growth), Average values: 0.1413
  Checkerboard well reading (growth): 0.1394 and 0.1427 and 0.1418
E. coli W3110 [3]; LEI-801 25 µM + PMBN 16 µM
  Checkerboard well reading (growth), Average values: 0.1492
  Checkerboard well reading (growth): 0.1486 and 0.1511 and 0.148
E. coli W3110 [3]; LEI-801 25 µM + PMBN 32 µM
  Checkerboard well reading (growth), Average values: 0.1528
  Checkerboard well reading (growth): 0.1518 and 0.1502 and 0.1563
E. coli W3110 [3]; LEI-801 50 µM + PMBN 0 µM
  Checkerboard well reading (growth), Average values: 0.5341
  Checkerboard well reading (growth): 0.4876 and 0.5464 and 0.5682
E. coli W3110 [3]; LEI-801 50 µM + PMBN 0.5 µM
  Checkerboard well reading (growth), Average values: 0.1519
  Checkerboard well reading (growth): 0.1573 and 0.1437 and 0.1549
E. coli W3110 [3]; LEI-801 50 µM + PMBN 1 µM
  Checkerboard well reading (growth), Average values: 0.152
  Checkerboard well reading (growth): 0.1515 and 0.1507 and 0.1538
E. coli W3110 [3]; LEI-801 50 µM + PMBN 2 µM
  Checkerboard well reading (growth), Average values: 0.1516
  Checkerboard well reading (growth): 0.15 and 0.1487 and 0.1561
E. coli W3110 [3]; LEI-801 50 µM + PMBN 4 µM
  Checkerboard well reading (growth), Average values: 0.1474
  Checkerboard well reading (growth): 0.1453 and 0.1491 and 0.1477
E. coli W3110 [3]; LEI-801 50 µM + PMBN 8 µM
  Checkerboard well reading (growth), Average values: 0.1653
  Checkerboard well reading (growth): 0.1998 and 0.1452 and 0.1509
E. coli W3110 [3]; LEI-801 50 µM + PMBN 16 µM
  Checkerboard well reading (growth), Average values: 0.1513
  Checkerboard well reading (growth): 0.1499 and 0.152 and 0.1519
E. coli W3110 [3]; LEI-801 50 µM + PMBN 32 µM
  Checkerboard well reading (growth), Average values: 0.1507
  Checkerboard well reading (growth): 0.1485 and 0.1492 and 0.1546
E. coli W3110 [3]; LPS disruption (pharmacological)
  MIC E. coli + 8 μM PMBN: 6.25 µM
E. coli W3110 [3]; checkerboard
  synergy with PMBN: potentiates; also recorded: Clear synergy
E. coli W3110 [3]; checkerboard with PMBN, E. coli W3110
  MSC: 6.25 µM

Source: publication PMC11374673, “Discovery of isoquinoline sulfonamides as allosteric gyrase inhibitors with activity against fluoroquinolone-resistant bacteria” (Nature Chemistry, 2024)
